pIC50: −log10 of the molar value. Where two headings read alike, the source gives them in different places.
Experiments:
human CD4+ T cells = experiment: Human CD4+ T-cell proliferation assay (CFSE, CD3/28 beads); settings: read-out: Proliferation IC50
[1] = target: T1, MTHFD1 recombinant human enzyme (Homo sapiens, UniProt P11586); experiment: MTHFD1 inhibition assay (NAD(P)H-Glo luminescence)
T1 sequence (P11586 2-291 limits assumed): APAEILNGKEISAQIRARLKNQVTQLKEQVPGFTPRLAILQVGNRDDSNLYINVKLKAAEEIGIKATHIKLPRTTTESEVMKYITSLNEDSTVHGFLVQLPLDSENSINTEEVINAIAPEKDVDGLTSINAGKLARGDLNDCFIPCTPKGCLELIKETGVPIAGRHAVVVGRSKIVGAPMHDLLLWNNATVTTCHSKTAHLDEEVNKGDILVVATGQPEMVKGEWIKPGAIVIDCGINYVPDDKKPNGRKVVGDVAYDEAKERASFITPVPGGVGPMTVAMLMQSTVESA

[2] = target: T2, MTHFD2 recombinant human enzyme (Homo sapiens, UniProt P13995); experiment: MTHFD2 inhibition assay (NAD(P)H-Glo luminescence); settings: for MTHFD1/MTHFD2 IC50 ratio: selectivity of MTHFD2 inhibition over MTHFD1, band
T2 sequence (P13995 36-350): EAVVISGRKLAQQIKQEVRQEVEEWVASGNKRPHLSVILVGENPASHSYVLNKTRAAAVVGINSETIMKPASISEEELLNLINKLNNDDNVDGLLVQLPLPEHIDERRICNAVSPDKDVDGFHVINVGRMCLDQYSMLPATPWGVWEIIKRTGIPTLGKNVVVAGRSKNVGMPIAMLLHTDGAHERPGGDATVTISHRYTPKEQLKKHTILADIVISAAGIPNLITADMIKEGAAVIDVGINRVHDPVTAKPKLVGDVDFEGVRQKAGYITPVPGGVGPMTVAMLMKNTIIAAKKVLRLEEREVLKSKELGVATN

[3] = target: T3, human α4β2 neuronal nicotinic receptor (Homo sapiens, UniProt P17787+P43681); experiment: α4β2 neuronal nicotinic receptor assay (agonist radioligand, [3H]cytisine); type: binding
T3 construct: host or cells: SH-SY5Y cells (membrane homogenates)
Procedure: Cell membrane homogenates (30 μg protein) were incubated for 120 min at 4° C. with 0.6 nM [3H]cytisine in the absence or presence of the test compound in a buffer containing 50 mM Tris-HCl (pH 7.4), 120 mM NaCl, 5 mM KCl, 2.5 mM CaCl2 and 1 mM MgCl2. Nonspecific binding was determined in the presence of 10 μM nicotine bitartrate. Following incubation, the samples were filtered rapidly under vacuum through glass fiber filters (GF/B, Packard) presoaked with 0.3% PEI and rinsed several times with ice-cold 50 mM Tris-HCl using a 96-sample cell harvester (Unifilter, Packard).
The filters were dried then counted for radioactivity in a scintillation counter (Topcount, Packard) using a scintillation cocktail (Microscint 0, Packard). The results were expressed as a percent inhibition of the control radioligand specific binding. The standard reference compound was nicotine bitartrate.
A number of example compounds of formula (I) were tested to evaluate their affinity for the human α4β2 neuronal nicotinic receptor expressed in transfected SH-SY5Y cells, determined in a radioligand binding assay.

[4] = MTHFD1 IC50, recombinant human enzyme 200 nM, NADP, band
[5] = transfected SH-SY5Y cell membranes, 0.6 nM [3H]cytisine, band

T3 sequence (P43681 29-627 limits assumed): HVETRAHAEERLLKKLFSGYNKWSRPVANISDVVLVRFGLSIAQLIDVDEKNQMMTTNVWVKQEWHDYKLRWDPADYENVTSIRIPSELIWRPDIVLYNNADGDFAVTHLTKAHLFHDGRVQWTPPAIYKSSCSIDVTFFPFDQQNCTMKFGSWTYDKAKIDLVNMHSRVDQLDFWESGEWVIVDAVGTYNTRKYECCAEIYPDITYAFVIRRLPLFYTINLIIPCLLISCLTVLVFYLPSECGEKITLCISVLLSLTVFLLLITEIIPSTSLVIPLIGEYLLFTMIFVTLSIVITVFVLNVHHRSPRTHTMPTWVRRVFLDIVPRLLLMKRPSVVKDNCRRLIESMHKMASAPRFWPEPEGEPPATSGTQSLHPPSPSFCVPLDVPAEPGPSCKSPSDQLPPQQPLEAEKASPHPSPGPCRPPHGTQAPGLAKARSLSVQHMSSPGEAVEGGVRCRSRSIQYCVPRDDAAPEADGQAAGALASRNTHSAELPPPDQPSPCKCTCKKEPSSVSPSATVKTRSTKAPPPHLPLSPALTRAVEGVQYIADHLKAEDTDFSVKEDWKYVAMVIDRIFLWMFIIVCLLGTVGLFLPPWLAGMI
T3 sequence (P17787 26-502): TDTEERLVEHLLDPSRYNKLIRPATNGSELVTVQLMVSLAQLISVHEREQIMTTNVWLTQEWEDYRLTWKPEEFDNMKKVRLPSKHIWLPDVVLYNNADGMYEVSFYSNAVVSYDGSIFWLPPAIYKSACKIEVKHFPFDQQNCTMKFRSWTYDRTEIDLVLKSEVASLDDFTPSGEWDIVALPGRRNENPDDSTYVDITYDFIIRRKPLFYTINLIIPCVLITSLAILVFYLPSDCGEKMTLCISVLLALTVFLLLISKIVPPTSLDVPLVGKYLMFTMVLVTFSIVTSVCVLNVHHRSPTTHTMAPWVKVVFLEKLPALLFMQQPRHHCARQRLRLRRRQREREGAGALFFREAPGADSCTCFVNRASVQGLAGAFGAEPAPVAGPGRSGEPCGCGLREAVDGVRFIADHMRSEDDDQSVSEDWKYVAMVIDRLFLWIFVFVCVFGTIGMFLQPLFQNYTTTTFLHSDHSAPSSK

Row | Compound | pIC50 [1, 4] | pIC50 [2] | MTHFD1/MTHFD2 IC50 ratio [2] | pIC50 [3, 5] | pIC50 (human CD4+ T cells) | pIC50 ([1]; MTHFD1 IC50, specific value, average of multiple repeats) | pIC50 ([2]; MTHFD2 IC50, recombinant human enzyme 40 nM, NAD+, band) | pIC50 ([2]; MTHFD2 IC50, specific value, average of multiple repeats) | pIC50 [3]
1 | COC[C@H]1CN(c2ccc3c4c(c(=O)oc3c2C)CN(C(=O)c2ccc(C(=O)NS(=O)(=O)N3CCCC3)c(OC3CCC3)c2F)CC4)CCN1C [Example 54, (R)-2-cyclobutoxy-3-fluoro-4-(8-(3-(methoxymethyl)-4-methylpiperazin-1-yl)-7-methyl-5-oxo-1,3,4,5-tetrahydro-2H-chromeno[3,4-c]pyridine-3-carbonyl)-N-(pyrrolidin-1-ylsulfonyl)benzamide] | 7.00 to 8.00 | 7.00 to 8.00 | F (<3) | < 4.00 | 7.52 to 8.00 |  |  |  | 
2 | COC[C@H]1CN(c2ccc3c4c(c(=O)oc3c2C)CN(C(=O)c2ccc(C(=O)NS(=O)(=O)N3CCCC3)c(OC3CCCC3)c2F)CC4)CCN1C [Example 12, (R)-2-(cyclopentyloxy)-3-fluoro-4-(8-(3-(methoxymethyl)-4-methylpiperazin-1-yl)-7-methyl-5-oxo-1,3,4,5-tetrahydro-2H-chromeno[3,4-c]pyridine-3-carbonyl)-N-(pyrrolidin-1-ylsulfonyl)benzamide] | 8.00 to 9.00 | 8.00 to 9.00 | F (<3) | < 4.00 |  |  |  |  | 
3 | COC[C@H]1CN(c2cc(C)c3c4c(c(=O)oc3c2C)CN(C(=O)c2ccc(C(=O)NS(=O)(=O)N3CCCC3)c(OC3CCC3)c2)CC4)CCN1C [Example 1, (R)-2-cyclobutoxy-4-(8-(3-(methoxymethyl)-4-methylpiperazin-1-yl)-7,10-dimethyl-5-oxo-1,3,4,5-tetrahydro-2H-chromeno[3,4-c]pyridine-3-carbonyl)-N-(pyrrolidin-1-ylsulfonyl)benzamide] | 6.00 to 7.00 | 6.00 to 7.00 | F (<3) | 4.70 to 5.70 | 8.00 to 9.00 |  |  |  | 
4 | COC[C@H]1CN(c2cc(C)c3c4c(c(=O)oc3c2C)CN(C(=O)c2ccc(C(=O)NS(=O)(=O)N3CCCC3)c(OC3CCCC3)c2F)CC4)CCN1C [Example 4, (R)-2-(cyclopentyloxy)-3-fluoro-4-(8-(3-(methoxymethyl)-4-methylpiperazin-1-yl)-7,10-dimethyl-5-oxo-1,3,4,5-tetrahydro-2H-chromeno[3,4-c]pyridine-3-carbonyl)-N-(pyrrolidin-1-ylsulfonyl)benzamide] | 8.00 to 9.00 | 8.00 to 9.00 | F (<3) | 4.00 to 4.70 | 8.00 to 9.00 |  |  |  | 
5 | COC[C@H]1CN(c2cc(C)c3c4c(c(=O)oc3c2C)CN(C(=O)c2ccc(C(=O)NS(=O)(=O)C3(C)CC3)c(OC3CCC3)c2)CC4)CCN1C [Example 2, (R)-2-cyclobutoxy-4-(8-(3-(methoxymethyl)-4-methylpiperazin-1-yl)-7,10-dimethyl-5-oxo-1,3,4,5-tetrahydro-2H-chromeno[3,4-c]pyridine-3-carbonyl)-N-((1-methylcyclopropyl)sulfonyl)benzamide] | 6.00 to 7.00 | 7.00 to 8.00 | G (^ 3 to 9.0) | 4.00 to 4.70 |  |  |  |  | 
6 | Cc1c(N2CCN(C)[C@@H](C)C2)ccc2c3c(c(=O)oc12)CN(C(=O)c1ccc(NS(C)(=O)=O)c(OC(F)(F)F)c1)CC3 [Reference Example 1, reference compound] | 6.00 to 7.00 |  |  | > 5.70 |  | 6.39 | 7.00 to 8.00 | 7.35 | > 5.70
7 | COC[C@H]1CN(c2cc(C)c3c4c(c(=O)oc3c2C)CN(C(=O)c2ccc(C(=O)NS(=O)(=O)N(C)C(C)C)c(OC3CCC3)c2F)CC4)CCN1C [Example 25, (R)-2-cyclobutoxy-3-fluoro-N-(N-isopropyl-N-methylsulfamoyl)-4-(8-(3-(methoxymethyl)-4-methylpiperazin-1-yl)-7,10-dimethyl-5-oxo-1,3,4,5-tetrahydro-2H-chromeno[3,4-c]pyridine-3-carbonyl)benzamide] | 8.00 to 9.00 | 8.00 to 9.00 | F (<3) | 4.00 to 4.70 |  |  |  |  | 
8 | COC[C@H]1CN(c2ccc3c4c(c(=O)oc3c2C)CN(C(=O)c2cc(F)c(C(=O)NS(=O)(=O)C3(C)CC3)c(N3C5CCC3CC5)c2)CC4)CCN1C [Example 22, (R)-2-(7-azabicyclo[2.2.1]heptan-7-yl)-6-fluoro-4-(8-(3-(methoxymethyl)-4-methylpiperazin-1-yl)-7-methyl-5-oxo-1,3,4,5-tetrahydro-2H-chromeno[3,4-c]pyridine-3-carbonyl)-N-((1-methylcyclopropyl)sulfonyl)benzamide] | 8.00 to 9.00 | 8.00 to 9.00 | F (<3) |  | 7.52 to 8.00 |  |  |  | 

Continued, in another order:

Row | pIC50 [1, 4] | pIC50 [2] | MTHFD1/MTHFD2 IC50 ratio [2] | pIC50 [3, 5] | Compound | pIC50 (human CD4+ T cells) | pIC50 ([1]; MTHFD1 IC50, specific value, average of multiple repeats) | pIC50 ([2]; MTHFD2 IC50, recombinant human enzyme 40 nM, NAD+, band) | pIC50 ([2]; MTHFD2 IC50, specific value, average of multiple repeats) | pIC50 [3]
9 | 7.00 to 8.00 | 8.00 to 9.00 | H (>9.0 to 30) | 4.00 to 4.70 | COC[C@H]1CN(c2cc(C)c3c4c(c(=O)oc3c2C)CN(C(=O)c2ccc(C(=O)NS(=O)(=O)C3(C)CC3)c(N3CCCC3)c2)CC4)CCN1C [Example 45, (R)-4-(8-(3-(methoxymethyl)-4-methylpiperazin-1-yl)-7,10-dimethyl-5-oxo-1,3,4,5-tetrahydro-2H-chromeno[3,4-c]pyridine-3-carbonyl)-N-((1-methylcyclopropyl)sulfonyl)-2-(pyrrolidin-1-yl)benzamide] |  |  |  |  | 
10 | 8.00 to 9.00 | 8.00 to 9.00 | F (<3) | 4.00 to 4.70 | COC[C@H]1CN(c2cc(C)c3c4c(c(=O)oc3c2C)CN(C(=O)c2ccc(C(=O)NS(=O)(=O)N(C)C(C)C)c(OC3CCCC3)c2F)CC4)CCN1C [Example 24, (R)-2-(cyclopentyloxy)-3-fluoro-N-(N-isopropyl-N-methylsulfamoyl)-4-(8-(3-(methoxymethyl)-4-methylpiperazin-1-yl)-7,10-dimethyl-5-oxo-1,3,4,5-tetrahydro-2H-chromeno[3,4-c]pyridine-3-carbonyl)benzamide] |  |  |  |  | 
11 | 8.00 to 9.00 | 8.00 to 9.00 | G (^ 3 to 9.0) | 4.70 to 5.70 | COC[C@H]1CN(c2cc(C)c3c4c(c(=O)oc3c2C)CN(C(=O)c2ccc(C(=O)NS(=O)(=O)N(C)C)c(N3CCCC3)c2)CC4)CCN1C [Example 20, (R)-N-(N,N-dimethylsulfamoyl)-4-(8-(3-(methoxymethyl)-4-methylpiperazin-1-yl)-7,10-dimethyl-5-oxo-1,3,4,5-tetrahydro-2H-chromeno[3,4-c]pyridine-3-carbonyl)-2-(pyrrolidin-1-yl)benzamide] |  |  |  |  | 
12 | 7.00 to 8.00 | 8.00 to 9.00 | G (^ 3 to 9.0) | < 4.00 | COC[C@H]1CN(c2ccc3c4c(c(=O)oc3c2C)CN(C(=O)c2ccc(C(=O)NS(=O)(=O)N(C)C)c(N3CCCC3)c2)CC4)CCN1C [Example 18, (R)-N-(N,N-dimethylsulfamoyl)-4-(8-(3-(methoxymethyl)-4-methylpiperazin-1-yl)-7-methyl-5-oxo-1,3,4,5-tetrahydro-2H-chromeno[3,4-c]pyridine-3-carbonyl)-2-(pyrrolidin-1-yl)benzamide] |  |  |  |  | 
13 | 5.30 to 6.00 | 6.00 to 7.00 | H (>9.0 to 30) |  | COC[C@H]1CN(c2cc(C)c3c4c(c(=O)oc3c2C)CN(C(=O)c2ccc(C(=O)NS(=O)(=O)N(C)C3CCCC3)cc2F)CC4)CCN1C [Example 199, (R)-N-(N-cyclopentyl-N-methylsulfamoyl)-3-fluoro-4-(8-(3-(methoxymethyl)-4-methylpiperazin-1-yl)-7,10-dimethyl-5-oxo-1,3,4,5-tetrahydro-2H-chromeno[3,4-c]pyridine-3-carbonyl)benzamide] | 6.00 to 7.00 |  |  |  | 

Reference: patent US12662489B2 (Sitryx Therapeutics Limited, priority 2023, dated 2026)
